Target: T1, P-selectin/PSGL-1 interaction (Homo sapiens, UniProt P16109)
T1 construct: comprised of the lectin and epidermal growth factor-like (EGF) domains expressed in CHO cells; made in house; host or cells: CHO cells (P-LE)
T1 sequence (P16109 42-198): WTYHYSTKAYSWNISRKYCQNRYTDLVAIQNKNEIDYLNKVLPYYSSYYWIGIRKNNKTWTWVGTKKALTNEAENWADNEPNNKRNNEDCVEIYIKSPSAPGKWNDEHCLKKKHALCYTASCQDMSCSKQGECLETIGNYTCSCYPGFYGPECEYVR
Assay: Biacore P-Selectin/PSGL-1 Inhibition Assay (surface plasmon resonance)
Assay type: binding
Settings: 250 uM test compound, 500 nM P.LE, immobilized PSGL-1 19ek, 10% DMSO, pH 7.4
Outline: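 Biotinylated monomeric human PSGL-1 "19ek" on streptavidin chip (600–700 RU); compounds preincubated 1 h, then mixed with 500 nM P-LE (lectin-EGF, CHO-expressed) at 250 or 500 μM compound, 10% DMSO, HEPES buffer with 1 mM CaCl2/MgCl2, pH 7.4. SPR at 25 °C; percent binding inhibition from double-referenced signals.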

inhibition at 250 µM [%]	Compound
56	O=C(O)c1c(O)c(C2(c3ccc(F)cc3)CC2)nc2c(C(F)(F)F)cccc12 [Compound 61, 2-(1-(4-fluorophenyl)cyclopropyl)-3-hydroxy-8-(trifluoromethyl)quinoline-4-carboxylic acid]
≤ 10	O=C(O)c1c(O)c(C2(c3ccc(Cl)cc3)CC2)nc2c(F)cccc12 [Compound 7, 2-(1-(4-chlorophenyl)cyclopropyl)-8-fluoro-3-hydroxyquinoline-4-carboxylic acid]
37	O=C(O)c1c(O)c(C2(c3ccccc3)CC2)nc2c(-c3ccccc3)cccc12 [Compound 45, 3-hydroxy-8-phenyl-2-(1-Phenylcyclopropyl)quinoline-4-carboxylic acid]
10	Cc1cccc2c(C(=O)O)c(O)c(C3(c4ccc(F)cc4)CC3)nc12 [Compound 78, 2-(1-(4-fluorophenyl)cyclopropyl)-3-hydroxy-8-methylquinoline-4-carboxylic acid]
≤ 10	O=C(O)c1c(O)c(C2(c3ccc(F)cc3)CC2)nc2cc(Cl)ccc12 [Compound 68, 7-chloro-2-(1-(4-fluorophenyl)cyclopropyl)-3-hydroxyquinoline-4-carboxylic acid]
41	O=C(O)c1c(O)c(C2(c3ccccc3)CC2)nc2c(C(F)(F)F)cc(Br)cc12 [Compound 107, 6-bromo-3-hydroxy-2-(1-phenylcyclopropyl)-8-(trifluoromethyl)quinoline-4-carboxylic acid]
64	CC(C)c1cccc2c(C(=O)O)c(O)c(C(C)Cc3ccccc3)nc12 (stereo not shown) [Compound 133, 3-Hydroxy-8-isopropyl-2-(1-phenylpropan-2-yl)quinoline-4-carboxylic acid]
≤ 10	O=C(O)c1c(O)c(C2(c3ccc(Cl)cc3)CC2)nc2c(C(F)(F)F)cc(C(F)(F)F)cc12 [Compound 105, 3-hydroxy-2-(1-(4-chlorophenyl)cyclopropyl)-6,8-bis(trifluoromethyl)quinoline-4-carboxylic acid]
10	CCc1ccc2nc(C3(c4ccc(F)cc4)CC3)c(O)c(C(=O)O)c2c1 [Compound 70, 6-ethyl-2-(1-(4-fluorophenyl)cyclopropyl)-3-hydroxyquinoline-4-carboxylic acid]
≤ 10	O=C(O)c1c(O)c(C2(c3ccc(Cl)cc3)CC2)nc2c(C(F)(F)F)cc(Br)cc12 [Compound 103, 6-bromo-2-(1-(4-chlorophenyl)cyclopropyl)-3-hydroxy-8-(trifluoromethyl)quinoline-4-carboxylic acid]
78	O=C(O)c1c(O)c(C2(c3ccc(Cl)cc3)CC2)nc2c(-c3ccsc3)cccc12 [Compound 37, 2-(1-(4-chlorophenyl)cyclopropyl)-3-hydroxy-8-(thiophen-3-yl)quinoline-4-carboxylic acid]
10	O=C(O)c1c(O)c(C2(c3ccccc3)CC2)nc2ccc(OC(F)(F)F)cc12 [Compound 29, 3-hydroxy-2-(1-phenylcyclopropyl)-6-(trifluoromethoxy)quinoline-4-carboxylic acid]
11	Cc1ccc(C2(c3nc4c(C)cc(C)cc4c(C(=O)O)c3O)CC2)cc1 [Compound 84, 3-hydroxy-6,8-dimethyl-2-(1-p-tolylcyclopropyl)quinoline-4-carboxylic acid]
36	COc1ccc(C2(c3nc4c(C(F)(F)F)cccc4c(C(=O)O)c3O)CC2)cc1 [Compound 50, 3-hydroxy-2-(1-(4-methoxyphenyl)cyclopropyl)-8-(trifluoromethyl)quinoline-4-carboxylic acid]
54	Cc1ccc(C2(c3nc4c(C(C)C)cccc4c(C(=O)O)c3O)CC2)cc1 [Compound 86, 3-hydroxy-8-isopropyl-2-(1-p-tolylcyclopropyl)quinoline-4-carboxylic acid]
≤ 10	O=C(O)c1c(O)c(C2(c3ccccc3)CC2)nc2ccc(C(O)(C(F)(F)F)C(F)(F)F)cc12 [Compound 48, 6-(1,1,1,3,3,3-hexafluoro-2-hydroxypropan-2-yl)-3-hydroxy-2-(1-phenylcyclopropyl)quinoline-4-carboxylic acid]
43	O=C(O)c1c(O)c(C2(c3ccc(F)cc3)CC2)nc2c(C(O)(C(F)(F)F)C(F)(F)F)cccc12 [Compound 76, 2-(1-(4-fluorophenyl)cyclopropyl)-8-(1,1,1,3,3,3-hexafluoro-2-hydroxypropan-2-yl)-3-hydroxyquinoline-4-carboxylic acid]
≤ 10	CC(C)(c1ccc(Cl)cc1)c1nc2c(C(O)(C(F)(F)F)C(F)(F)F)cccc2c(C(=O)O)c1O [Compound 122, 2-(2-(4-chlorophenyl)propan-2-yl)-8-(1,1,1,3,3,3-hexafluoro-2-hydroxypropan-2-yl)-3-hydroxyquinoline-4-carboxylic acid]
38	COc1ccc(C2(c3nc4c5c(ccc4c(C(=O)O)c3O)CCCC5)CC2)cc1 [Compound 51, 3-hydroxy-2-(1-(4-methoxyphenyl)cyclopropyl)-7,8,9,10-tetrahydrobenzo[h]quinoline-4-carboxylic acid]

inhibition at 250 µM [%]	Compound
52	O=C(O)c1c(O)c(C2(c3ccc(Cl)cc3)CC2)nc2c(C(F)(F)F)cccc12 [Compound 38, 2-(1-(4-chlorophenyl)cyclopropyl)-3-hydroxy-8-(trifluoromethyl)quinoline-4-carboxylic acid]
≤ 10	Cc1ccc2nc(C3(c4ccc(Cl)cc4)CC3)c(O)c(C(=O)O)c2c1 [Compound 19, 2-(1-(4-chlorophenyl)cyclopropyl)-3-hydroxy-6-methylquinoline-4-carboxylic acid]
68	CC(C)c1cccc2c(C(=O)O)c(O)c(C(C)(C)c3ccccc3)nc12 [Compound 116, 3-hydroxy-8-isopropyl-2-(2-phenylpropan-2-yl)quinoline-4-carboxylic acid]
38	CCc1cccc2c(C(=O)O)c(O)c(C3(c4ccc(C)cc4)CC3)nc12 [Compound 82, 8-ethyl-2-(1-p-tolylcyclopropyl)-3-hydroxyquinoline-4-carboxylic acid]
70	O=C(O)c1c(O)c(C2(c3ccccc3)CC2)nc2c(-c3ccsc3)cccc12 [Compound 35, 3-hydroxy-2-(1-phenylcyclopropyl)-8-(thiophen-3-yl)quinoline-4-carboxylic acid]
23	CCc1cccc2c(C(=O)O)c(O)c(C3(c4ccccc4)CC3)nc12 [Compound 14, 8-ethyl-3-hydroxy-2-(1-phenylcyclopropyl)quinoline-4-carboxylic acid]
64	CCC(c1ccccc1)c1nc2c(C)c(C)ccc2c(C(=O)O)c1O (stereo not shown) [Compound 128, 3-Hydroxy-7,8-dimethyl-2-(1-phenylpropyl)quinoline-4-carboxylic acid]
≤ 10	O=C(O)c1c(O)c(C2(c3ccc(F)cc3)CC2)nc2c(Br)cccc12 [Compound 75, 8-bromo-2-(1-(4-fluorophenyl)cyclopropyl)-3-hydroxyquinoline-4-carboxylic acid]
66	CC(C)c1cccc2c(C(=O)O)c(O)c(C3(c4ccc(Cl)cc4)CC3)nc12 [Compound 39, 2-(1-(4-chlorophenyl)cyclopropyl)-3-hydroxy-8-isopropylquinoline-4-carboxylic acid]
18	CCC(C)c1cccc2c(C(=O)O)c(O)c(C3(c4ccc(Cl)cc4)CC3)nc12 (stereo not shown) [Compound 3, 8-sec-butyl-2-(1-(4-chlorophenyl)cyclopropyl)-3-hydroxyquinoline-4-carboxylic acid]
93	O=C(O)c1c(O)c(C2(c3ccc(Cl)cc3)CC2)nc2c(Cl)cccc12 [Compound 5, 8-chloro-2-(1-(4-chlorophenyl)cyclopropyl)-3-hydroxyquinoline-4-carboxylic acid]
≤ 10	CCc1ccc2c(C(=O)O)c(O)c(C3(c4ccc(F)cc4)CC3)nc2c1 [Compound 66, 7-ethyl-2-(1-(4-fluorophenyl)cyclopropyl)-3-hydroxyquinoline-4-carboxylic acid]
≤ 10	Cc1ccc2c(C(=O)O)c(O)c(C3(c4ccc(Cl)cc4)CC3)nc2c1 [Compound 13, 2-(1-(4-chlorophenyl)cyclopropyl)-3-hydroxy-7-methylquinoline-4-carboxylic acid]
67	CC(C)c1cccc2c(C(=O)O)c(O)c(C3(c4ccc(F)cc4)CC3)nc12 [Compound 62, 2-(1-(4-fluorophenyl)cyclopropyl)-3-hydroxy-8-isopropylquinoline-4-carboxylic acid]
63	CCC(C)c1cccc2c(C(=O)O)c(O)c(C3(c4ccccc4)CC3)nc12 (stereo not shown) [Compound 15, 8-sec-butyl-3-hydroxy-2-(1-phenylcyclopropyl)quinoline-4-carboxylic acid]
52	O=C(O)c1c(O)c(C2(c3ccccc3)CC2)nc2c3c(ccc12)CCCC3 [Compound 42, 3-hydroxy-2-(1-phenylcyclopropyl)-7,8,9,10-tetrahydrobenzo[h]quinoline-4-carboxylic acid]
44	O=C(O)c1c(O)c(C2(c3ccccc3)CC2)nc2c(C(F)(F)F)cccc12 [Compound 34, 3-hydroxy-2-(1-phenylcyclopropyl)-8-(trifluoromethyl)quinoline-4-carboxylic acid]
58	O=C(O)c1c(O)c(C2(c3ccccc3)CC2)nc2c(C(O)(C(F)(F)F)C(F)(F)F)cccc12 [Compound 49, 8-(1,1,1,3,3,3-hexafluoro-2-hydroxypropan-2-yl)-3-hydroxy-2-(1-phenylcyclopropyl)quinoline-4-carboxylic acid]

— patent publication US20080255192A1, “Methods and Compositions for Selectin Inhibition” (Wyeth, priority 2007, published 2008)
